Format in all cases: cell-based
The test system of one data set is Src. Put plainly: Western blot of Src phosphorylation in MDA-MB-231 cells. The method, then:
FIG. 8: A study of the role of TrkA and EphA2 in the activation of proteins Akt and Src. Cells MDA-MB-231 were respectively treated with a TrkA inhibitor (K252a), an anti-EphA2 siRNA (siEphA2), an inhibitor of PI3-K (LY294002) and an inhibitor of Src (SKI-1).
A and D. Cells MDA-MB-231 HA-TrkA were treated with proNGF N.C. […] The phosphorylation of Akt and Src was determined by using phospho-specific antibodies. The equal charge was verified using Akt and Src antibodies.
C and F. The phosphorylation of Akt and Src was determined in the total lysates coming from cells MDA-MB-231 transfected with siEphA2 and treated for 30 minutes with proNGF N.C. (C) or NGF (F).
After treatment, the cells were lysed (lysis buffer: 40 mM HEPES pH 7.5; 1 mM EDTA pH 8.0; 120 mM NaCl; 10 mM NaPPi; 50 mM NaF; 1.5 mM Na3VO4; 1% Triton X 100; 0.1% SDS; 1 mM PMSF; 10% glycerol and 1/100 th of protease inhibitor cocktail (Sigma) (20 min; 4° C.)). The lysates were recovered and clarified by centrifugation (12,000 g; 10 min; 4° C.). The supernatant was then stored at −80° C. until use. The protein extracts were diluted to 2 μg·μL−1 in a Laemmli 1× buffer (7 min; 100° C.) then deposited and separated on SDS-PAGE (concentration gel 3.6% acrylamide and separation gel 7.5% to 10% acrylamide (thickness 1 mm); 180 V; 10 min then 200 V constant; until output of the migration front). The proteins separated by SDS-PAGE were transferred according to the semi-dry transfer method (buffer: 48 mM Tris base, 39 mM glycine, 1.64 mM SDS, 20% methanol (v/v); 14 V; 15 min per gel) or liquid (buffer: 25 mM Tris base and 192 mM glycine; 15% methanol (v/v); 100 V; 30 min) on nitrocellulose membranes (0.45 μm; Whatman; Germany) or PVDF (0.45 μm; Immobilon P; Millipore; France). The PVDF membrane was “activated” beforehand (methanol; 10 min; 20° C.). The membranes were then saturated (TBS-T; 5% BSA; 1 h; 20° C.) then incubated (16 h; 4° C.) with the chosen primary antibody. […] The membranes were placed in an image analyser (LAS 4000; Fuji) connected to a computer which allowed image generation (software Image Reader LAS 4000).
The antibody against EphA2 was sc-924 (Santa Cruz), the antibody against sortilin was BD Bioscience 612101, the antibody against TrkA was sc 14024 (Santa Cruz), the antibody against HA was MMS-101R (Covance), the antibody against Akt was Cell Signaling 4691, the antibody against phospho-Akt (Ser 473) was Cell Signaling 9271, the antibody against Src was Cell Signaling 2109 (WB), the antibody against PhosphoSrc (Tyr416) was Cell Signaling 2105 and the antibody against actin was Sigma A2066.
Proteins Akt and Src were both involved in the pro-invasive effect of proNGF. In order to identify the role of TrkA and EphA2 in the activation of proteins Akt and Src, cells MDA-MB-231 were treated respectively with a TrkA inhibitor (K252a), an anti-EphA2 siRNA (siEphA2) the sequence of which is presented in table 1, a PI3-K inhibitor (LY294002) (the activation of Akt in effect underlies that of PI3-K) and an inhibitor of Src (SKI-1).

A further data set deals with MDA-MB-231 cells. The data set is described as follows: In vitro invasion test (Boyden chamber), MDA-MB-231. The method, then:
(§1) (0.5 nM) for a period of 20 hours. The untreated cells represent the control and determine a base invasion of 100%.
(§2) FIG. 3: A study of the involvement of EphA2 on the pro-invasive effects of proNGF. The invasion test is carried out on cells MDA-MB-231 (A), DU145 (B) and PC3 (C) transfected with a siRNA against EphA2 (siEphA2), TrkA (siTrkA) or a random siRNA (siCTRL). The transfected siCTRL cells are treated to provide a control and determine a base invasion of 100% (white column). […] The efficacy of the siRNA is measured by the western blot method through the use of specific antibodies against TrkA, EphA2, and actin (load control).
FIG. 10: Study on the effect of lestaurtinib (TrkA inhibitor) and EphrinA1-Fc (EphA2 inhibitor) and combination of treatment on invasion of breast cancer cells. […] Non-stimulated cells (“non stim”) of proNGF served as the control and determined a base invasion of 100% (white bar).
(§3) The Boyden Chambers (Transwell®; BD Biosciences; France) were recovered from a biological matrix (type 1 collagen from rats diluted to 400 μg·mL-1 in EMEM-0.1% FCS medium; Millipore). […] The number of cells was estimated after staining with Hoechst 33 258 (1 mM; 30 min; 20° C.) by counting the nuclei thereof using fluorescence microscopy on a total of 5 five randomly chosen fields (lens 10×; λ-excitation: 345 nm; λ-emission: 478 nm; Eclipse Ti) using the ImageJ software. […]

Another data set deals with DU145 cells. The data set is described as follows: In vitro invasion test (Boyden chamber), DU145. The method, then:
as §1, §2
as §3, with “Millipore). The cells were then seeded with 100,000 cells/well on PET membranes (polyethylene terephtalate; dia.: 10.5 mm; porosity: 8 μm) of Boyden Chambers and held in an EMEM-0.1% FCS medium. […] (0.5 nM) in the lower part.” for “Millipore).”

The test system of a further data set is PC3 cells. Put plainly: In vitro invasion test (Boyden chamber), PC3. The method, then: as §1, §2
as §3, with “Millipore). The cells were then seeded with 100,000 cells/well on PET membranes (polyethylene terephtalate; dia.: 10.5 mm; porosity: 8 μm) of Boyden Chambers and held in an EMEM-0.1% FCS medium. […] (0.5 nM) in the lower part.” for “Millipore).”

Setting [1] is: NGF 16 nM or proNGF N.C. 0.5 nM, untreated cells = 100%.
Setting [2] is: siRNA transfection vs siCTRL, proNGF.

As to “NGF: Nerve Growth Factor; recombinant human β NGF supplied by Scil Proteins”, the “activation (phosphorylation) of Src by the ligand” value in the data set with Src (MDA-MB-231 HA-TrkA, 30 min) is “increased”. Also, the “cell invasion under growth factor” value in the data set on MDA-MB-231 cells (setting [1]), with DU145 cells (setting [1]) and with PC3 cells (setting [1]) was “increased cell invasion” each time.

As for “siEphA2: siRNA against EphA2, GCAAGGAAGUGGUACUGCUGGACUU (SEQ ID NO: 1) (listed as RNA, chemistry not given here)”, in the data set on Src (NGF 30 min, 10 nM K252a or siEphA2), the “effect on Src phosphorylation induced by NGF” value is “reduces only the base activation of phospho-Akt and phospho-Src but not the phosphorylation induced by the NGF”. Also, in the data set with Src (proNGF N.C. 30 min, 10 nM K252a, 15 μM LY294002, 50 nM SKI-1 or siEphA2), the “effect on Src activation induced by proNGF” value is listed as “reduced the phosphorylation of Src”. Moreover, the “invasion induced by proNGF in siRNA-transfected cells” value with MDA-MB-231 cells (setting [2]), with DU145 cells (setting [2]) and in the data set with PC3 cells (setting [2]) was “abolished the invasion induced by proNGF” each time.

Source of the values: patent publication US20170258871A1, “COMBINED USE OF A TRKA INHIBITOR AND AN EPHA2 INHIBITOR FOR USING IN THE TREATMENT OF SOLID CANCERS, AND METHOD FOR THE PROGNOSIS OF SURVIVAL OF A PATIENT WHO HAS A SOLID CANCER” (UNIVERSITE DES SCIENCES ET TECHNOLOGIES DE LILLE, priority 2014, published 2017).
